Measurements from patent US20200284781A1, “TEST METHOD OF COMBINED TOXICITY FOR CH[…] BUTACHLOR” (priority 2019, published 2020).
≈ marks a conversion by molar mass, not a printed value.

Columns and labels:
[1] = Single toxicity of chlorpyrifos and butachlor to zebrafish embryos; assay type: in vivo; conditions: in vivo, other: immersion in test solution (waterborne exposure), read-out: LC50 (95% CI)
Experimental: (§1) D. Toxicity of pesticides to zebrafish embryos: On the basis of clearing the effective concentration range of pesticides in pre-tests, diluting the pesticide stock solution with standard dilution water to 5-7 concentrations with a geometrical ratio, and using a 24 well cell culture dish for exposure apparatus, the volume of each well is 3 mL, 20 wells are the same experimental concentration, and the remaining 4 wells are blank controls; during the experiment, of test solution and 1 randomly selected 3 hpf (hourpost-fertilization) normal fertilized embryo at the embryo shield stage were put into every well, set up 3 replicates at each concentration, every culture dish as a replicate, and incubating in a multifunctional incubator at 26±1° C. with a photoperiod of 14 h (light): 10 h (dark);
(§2) Preferably, in the step D, the test solution needs to be replaced every 24 h, observing and microscopical observing the CK group and the exposed group every 24 h, recording the number of embryos with normal development and malformations, and calculating the number of embryos hatched and larvae malformations, the experiment lasts 96 hours.
as §1, with “24-well” for “24 well”, “poisoning” for “exposure”, “experiment, 2 mL” for “experiment,”, “C. V:” for “C.”
(§3) H. Data processing: Calculating the LC50 value of pesticides on larvae and their 95% confidence limits by probit analysis based on the number and time of dead fish larvae, and using 95% confidence limit of LC50 as the criterion to determine whether the toxicity difference of different drugs is significant, LC50≤0.1 mg a.i. L^−1, is hypertoxic; 0.1<LC50≤1.0 mg a.i. L^−1, is high toxicity; 1.0<LC50≤10.0 mg a.i. L^−1, is medium toxicity; LC50>10.0 mg a.i. L^−1, is low toxicity, the maximum allowable concentration of MPC employs 100 as the protection factor, the formula is: MPC=96 h-LC50/100, to get the maximum allowable concentration of a poison.
(§4) Wherein in the step D, the test solution needs to be replaced every 24 h, observing and microscopical observing the CK group and the exposed group every 24 h, recording the number of embryos with normal development and malformations, and calculating the number of embryos hatched and larvae malformations, the experiment lasts 96 hours, for structural analysis.

zebrafish embryos = assay: as above; assay type: in vivo
Experimental: as §1, §2
as §1, with “24-well” for “24 well”, “poisoning” for “exposure”, “experiment, 2 mL” for “experiment,”, “C. V:” for “C.”
as §3, §4

[2] = Single toxicity of chlorpyrifos and butachlor to zebrafish larvae; conditions: in vivo, other: immersion in test solution (waterborne exposure), read-out: LC50 (95% CI)
Experimental: (§5) H. Data processing: Calculating the LC50 value of pesticides on larvae and their 95% confidence limits by probit analysis based on the number and time of dead fish larvae, and using 95% confidence limit of LC50 as the criterion to determine whether the toxicity difference of different pesticides is significant, LC50≤0.1 mg a.i. L^−1, is hypertoxic; 0.1<LC50≤1.0 mg a.i. L^−1, is high toxicity; 1.0<LC50≤[…] a.i. L^−1, is medium toxicity; LC50>10.0 mg a.i. L^−1 is low toxicity. The maximum allowable concentration of MPC employs 100 as the protection factor, the formula is: MPC=96 h-LC50/100, to get the maximum allowable concentration of a poison.
as §3
(§6) Wherein the larvae in the migratory period in step E refer to fish 120 h after fertilization of eggs, for improving the accuracy of the test.

[3] = Single toxicity of chlorpyrifos and butachlor to Japanese medaka larvae; conditions: in vivo, other: immersion in test solution (waterborne exposure), read-out: LC50 (95% CI)
Experimental: as §5, §3, §6

[4] = Combined toxicity of chlorpyrifos and butachlor to zebrafish larvae; conditions: in vivo, read-out: LC50 (95% CI) of the component in the mixture
Experimental: (§7) F. Combined toxicity test: The toxicity test is performed on zebrafish larvae and Japanese medaka larvae, the test procedure is as follows:
a. Zebrafish larvae: The LC50 value of zebrafish larvae with a single pesticide for 96 h is a toxic unit, and 5-7 different concentrations with a geometrical ratio, test method and calculation of LC50 value of each exposure time are the same as 1.4.2;
as §3

[5] = Combined toxicity of chlorpyrifos and butachlor to Japanese medaka larvae; conditions: in vivo
Experimental: as §7
b. Japanese medaka: A single pesticide is used to measure the LC50 value of Japanese medaka for 96 hours, mixing chlorpyrifos and butachlor to form binary mixed systems with different ratios of 1:4, 2:3, 1:1, 3:2 and 4:1, according to the pre-experiment results, 5-7 different concentrations are set at equal logarithmic intervals to determine the combined toxicity of the mixed system to Japanese medaka, the method is the same as the determination of single toxicity, the total concentration of the binary mixture is the sum of the concentrations of the two components;
b. Japanese medaka: A single pesticide is used to measure the LC50 value of Japanese medaka for 96 hours, mixing chlorpyrifos and butachlor to form binary mixed systems with different ratios of 1:4, 2:3, 1:1, 3:2 and 4:1, according to the pre-experiment results, 5-7 different concentrations with a geometrical ratio are set at equal logarithmic intervals to determine the combined toxicity of the mixed system to Japanese medaka the method is the same as the determination, of single toxicity, the total concentration of the binary mixture is the sum of the concentrations of the two components;
as §3

For `CCCCOCN(C(=O)CCl)c1c(CC)cccc1CC` [Butachlor, butachlor], the LC50 at 24 h ([1]; exposure time 24 h) was 32.8 µg/mL (≈ 105 µM), the LC50 at 48 h ([1]; exposure time 48 h) was 5.82 µg/mL (≈ 18.7 µM) and the LC50 at 72 h ([1]; exposure time 72 h) was 4.42 µg/mL (≈ 14.2 µM). The LC50 at 96 h ([1]; exposure time 96 h) was 1.93 µg/mL (≈ 6.19 µM), the “effects of exposure on zebrafish embryo development” value (zebrafish embryos) was “egg coagulation, pericardial edema, yolk sac edema, and spinal curvature” and the “times more toxic to zebrafish embryos than chlorpyrifos” value (zebrafish embryos; 96 h) was 6.75 times. It also gave an LC50 at 24 h ([2]; exposure time 24 h) of 0.67 µg/mL (≈ 2.15 µM), an LC50 at 48 h ([2]; exposure time 48 h) of 0.59 µg/mL (≈ 1.89 µM) and an LC50 at 72 h ([2]; exposure time 72 h) of 0.51 µg/mL (≈ 1.64 µM). For the same compound, the LC50 at 96 h ([2]; exposure time 96 h) was 0.44 µg/mL (≈ 1.41 µM), the LC50 at 24 h ([3]; exposure time 24 h) was 0.85 µg/mL (≈ 2.73 µM) and the LC50 at 48 h ([3]; exposure time 48 h) was 0.72 µg/mL (≈ 2.31 µM). The LC50 at 72 h ([3]; exposure time 72 h) was 0.54 µg/mL (≈ 1.73 µM), the LC50 at 96 h ([3]; exposure time 96 h) was 0.43 µg/mL (≈ 1.38 µM) and the LC50 at 24 h ([4]; equitoxic ratio) was 0.91 µg/mL. It also gave an LC50 at 48 h ([4]; equitoxic ratio) of 0.72 µg/mL, an LC50 at 72 h ([4]; equitoxic ratio) of 0.45 µg/mL and an LC50 at 96 h ([4]; equitoxic ratio) of 0.26 µg/mL. The LC50 at 24 h ([4]; equivalent concentration (1:1)) was 0.18 µg/mL, the LC50 at 48 h ([4]; equivalent concentration (1:1)) was 0.16 µg/mL and the LC50 at 72 h ([4]; equivalent concentration (1:1)) was 0.14 µg/mL. For the same compound, the LC50 at 96 h ([4]; equivalent concentration (1:1)) was 0.11 µg/mL, the LC50 at 24 h ([5]; Japanese medaka larvae, chlorpyrifos:butachlor ratio 4:1, 24 h, read-out: LC50 (95% CI) of the component in the mixture) was 0.2 µg/mL and the LC50 at 96 h ([5]; Japanese medaka larvae, chlorpyrifos:butachlor ratio 4:1, 96 h, read-out: LC50 (95% CI) of the component in the mixture) was 0.036 µg/mL. The LC50 at 24 h ([5]; other: immersion in test solution (waterborne exposure), Japanese medaka larvae, chlorpyrifos:butachlor ratio 1:1, 24 h, read-out: LC50 (95%) CI of the component in the mixture) was 1.53 µg/mL, the LC50 at 48 h ([5]; other: immersion in test solution (waterborne exposure), Japanese medaka larvae, chlorpyrifos:butachlor ratio 1:1, 48 h, read-out: LC50 (95%) CI of the component in the mixture) was 1.22 µg/mL and the LC50 at 72 h ([5]; other: immersion in test solution (waterborne exposure), Japanese medaka larvae, chlorpyrifos:butachlor ratio 1:1, 72 h, read-out: LC50 (95%) CI of the component in the mixture) was 0.93 µg/mL. For the same compound, the LC50 at 96 h ([5]; other: immersion in test solution (waterborne exposure), Japanese medaka larvae, chlorpyrifos:butachlor ratio 1:1, 96 h, read-out: LC50 (95%) CI of the component in the mixture) was 0.81 µg/mL, the LC50 at 48 h ([5]; other: immersion in test solution (waterborne exposure), Japanese medaka larvae, chlorpyrifos:butachlor ratio 4:1, 48 h, read-out: LC50 (95% CI) of the component in the mixture) was 0.15 µg/mL and the LC50 at 72 h ([5]; other: immersion in test solution (waterborne exposure), Japanese medaka larvae, chlorpyrifos:butachlor ratio 4:1, 72 h, read-out: LC50 (95% CI) of the component in the mixture) was 0.11 µg/mL. The LC50 at 24 h ([5]; other: immersion in test solution (waterborne exposure), chlorpyrifos:butachlor ratio 1:4, 24 h, read-out: LC50 (95% CI) of the component in the mixture) was 2.29 µg/mL, the LC50 at 48 h ([5]; other: immersion in test solution (waterborne exposure), chlorpyrifos:butachlor ratio 1:4, 48 h, read-out: LC50 (95% CI) of the component in the mixture) was 1.3 µg/mL and the LC50 at 72 h ([5]; other: immersion in test solution (waterborne exposure), chlorpyrifos:butachlor ratio 1:4, 72 h, read-out: LC50 (95% CI) of the component in the mixture) was 1.14 µg/mL. For the same compound, the LC50 at 96 h ([5]; other: immersion in test solution (waterborne exposure), chlorpyrifos:butachlor ratio 1:4, 96 h, read-out: LC50 (95% CI) of the component in the mixture) was 0.88 µg/mL, the LC50 at 24 h ([5]; other: immersion in test solution (waterborne exposure), chlorpyrifos:butachlor ratio 2:3, 24 h, read-out: LC50 (95% CI) of the component in the mixture) was 2.29 µg/mL and the LC50 at 48 h ([5]; other: immersion in test solution (waterborne exposure), chlorpyrifos:butachlor ratio 2:3, 48 h, read-out: LC50 (95% CI) of the component in the mixture) was 0.66 µg/mL. The LC50 at 72 h ([5]; other: immersion in test solution (waterborne exposure), chlorpyrifos:butachlor ratio 2:3, 72 h, read-out: LC50 (95% CI) of the component in the mixture) was 0.43 µg/mL, the LC50 at 96 h ([5]; other: immersion in test solution (waterborne exposure), chlorpyrifos:butachlor ratio 2:3, 96 h, read-out: LC50 (95% CI) of the component in the mixture) was 0.35 µg/mL and the LC50 at 24 h ([5]; other: immersion in test solution (waterborne exposure), chlorpyrifos:butachlor ratio 3:2, 24 h, read-out: LC50 (95% CI) of the component in the mixture) was 1.48 µg/mL. For the same compound, the LC50 at 48 h ([5]; other: immersion in test solution (waterborne exposure), chlorpyrifos:butachlor ratio 3:2, 48 h, read-out: LC50 (95% CI) of the component in the mixture) was 1.29 µg/mL, the LC50 at 72 h ([5]; other: immersion in test solution (waterborne exposure), chlorpyrifos:butachlor ratio 3:2, 72 h, read-out: LC50 (95% CI) of the component in the mixture) was 0.87 µg/mL and the LC50 at 96 h ([5]; other: immersion in test solution (waterborne exposure), chlorpyrifos:butachlor ratio 3:2, 96 h, read-out: LC50 (95% CI) of the component in the mixture) was 0.66 µg/mL.
